Calls of active or inactive are those of the source. The rule behind the calls is not given here.

The target in assay [1] is Fibroblast growth factor receptor 1 (Homo sapiens) (UniProt P11362). Nature of the assay: Inhibition of FGFR1 (unknown origin) at 1 uM by Ambit Kinomescan binding assay relative to control; values are per cent of control.
Assay [2] concerns the target Ephrin type-A receptor 7 (Homo sapiens) (UniProt Q15375). Nature of the assay: Inhibition of EPHA7 (unknown origin) at 1 uM by Ambit Kinomescan binding assay relative to control.
For assay [3], the target named is T1, Dual specificity mitogen-activated protein kinase kinase 6 (Homo sapiens) (UniProt P52564).
T1 sequence (whole entry): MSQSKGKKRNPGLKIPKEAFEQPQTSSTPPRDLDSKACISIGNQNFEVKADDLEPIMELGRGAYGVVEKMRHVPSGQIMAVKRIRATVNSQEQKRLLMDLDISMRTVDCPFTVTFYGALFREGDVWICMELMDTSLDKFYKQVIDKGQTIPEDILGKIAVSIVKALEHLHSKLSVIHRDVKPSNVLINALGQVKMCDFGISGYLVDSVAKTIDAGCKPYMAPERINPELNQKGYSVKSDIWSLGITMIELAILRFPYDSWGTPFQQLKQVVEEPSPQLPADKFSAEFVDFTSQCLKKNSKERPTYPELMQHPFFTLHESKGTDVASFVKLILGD
The assay is described as follows: Inhibition of MAP2K6 K2 labeling site in human Huh-7 cells at 1 uM by KiNativ Profiling analysis relative to control. Type of assay: cell-based.

The target in assay [4] is Serine/threonine-protein kinase PAK 4 (Homo sapiens) (UniProt O96013). The assay is described as follows: Inhibition of PAK4 (unknown origin) at 10 uM by Ambit Kinomescan binding assay.
Assay [5] has as its target Protein-tyrosine kinase 2-beta (Homo sapiens) (UniProt Q14289). The assay is described as follows: Inhibition of PYK2 (unknown origin) at 10 uM by Ambit Kinomescan binding assay relative to control; values are per cent of control.
Assay [6] concerns the target TRAF2 and NCK-interacting protein kinase (Homo sapiens) (UniProt Q9UKE5). The assay is described as follows: Inhibition of TNIK K1 labeling site in human Huh-7 cells at 1 uM by KiNativ Profiling analysis relative to control. Type of assay: cell-based.
The nature of assay [7]: Inhibition of […] ATP labeling site in human Huh-7 cells at 1 uM by KiNativ Profiling analysis relative to control. The note with it: condition cancer.
Assay [8] addresses T2, Eukaryotic translation initiation factor 2-alpha kinase 3 (Homo sapiens) (UniProt Q9NZJ5).
T2 sequence (whole entry): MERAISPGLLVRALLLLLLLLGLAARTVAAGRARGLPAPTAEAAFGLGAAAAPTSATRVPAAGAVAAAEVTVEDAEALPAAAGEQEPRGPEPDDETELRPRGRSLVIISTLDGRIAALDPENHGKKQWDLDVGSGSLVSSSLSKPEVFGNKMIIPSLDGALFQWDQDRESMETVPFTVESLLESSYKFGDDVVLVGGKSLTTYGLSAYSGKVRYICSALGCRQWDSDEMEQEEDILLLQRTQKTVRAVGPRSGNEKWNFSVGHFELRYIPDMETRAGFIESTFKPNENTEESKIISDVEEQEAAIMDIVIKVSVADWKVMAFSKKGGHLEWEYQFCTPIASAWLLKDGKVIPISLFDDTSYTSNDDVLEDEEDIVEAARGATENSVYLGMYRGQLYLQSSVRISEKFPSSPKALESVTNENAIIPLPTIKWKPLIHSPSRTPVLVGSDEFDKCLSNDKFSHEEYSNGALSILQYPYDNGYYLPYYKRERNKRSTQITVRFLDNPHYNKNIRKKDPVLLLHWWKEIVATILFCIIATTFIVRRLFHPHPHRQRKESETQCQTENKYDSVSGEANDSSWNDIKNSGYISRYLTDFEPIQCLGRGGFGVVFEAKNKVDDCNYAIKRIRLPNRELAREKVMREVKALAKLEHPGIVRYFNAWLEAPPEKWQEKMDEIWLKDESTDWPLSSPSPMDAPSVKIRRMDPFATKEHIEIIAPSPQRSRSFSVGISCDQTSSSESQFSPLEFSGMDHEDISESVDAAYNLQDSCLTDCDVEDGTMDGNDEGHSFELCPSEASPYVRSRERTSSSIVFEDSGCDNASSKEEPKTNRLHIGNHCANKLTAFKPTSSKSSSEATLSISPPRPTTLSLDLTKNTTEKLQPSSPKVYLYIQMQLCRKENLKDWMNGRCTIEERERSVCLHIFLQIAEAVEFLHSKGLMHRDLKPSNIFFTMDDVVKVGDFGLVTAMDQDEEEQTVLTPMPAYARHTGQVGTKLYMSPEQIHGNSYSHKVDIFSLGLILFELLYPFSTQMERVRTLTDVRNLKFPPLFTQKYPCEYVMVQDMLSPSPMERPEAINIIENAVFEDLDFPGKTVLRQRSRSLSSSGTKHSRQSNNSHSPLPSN
Nature of the assay: Inhibition of PEK K2 labeling site in human Huh-7 cells at 10 uM by KiNativ Profiling analysis relative to control. The format is cell-based.

The target of assay [9] is Serine/threonine-protein kinase ATR (Homo sapiens) (UniProt Q13535). The assay is described as follows: Inhibition of ATR ATP labeling site in human A-375 cells at 5 uM by KiNativ Profiling analysis relative to control. Type of assay: cell-based.
The target in assay [10] is Calcium/calmodulin-dependent protein kinase type II subunit beta (Homo sapiens) (UniProt Q13554). Nature of the assay: Inhibition of CaMK2b Lys2 labeling site in human Huh-7 cells at 1 uM by KiNativ Profiling analysis relative to control. The format is cell-based.
Assay [11] addresses T3, NUAK family SNF1-like kinase 1 (Homo sapiens) (UniProt O60285).
T3 sequence (whole entry): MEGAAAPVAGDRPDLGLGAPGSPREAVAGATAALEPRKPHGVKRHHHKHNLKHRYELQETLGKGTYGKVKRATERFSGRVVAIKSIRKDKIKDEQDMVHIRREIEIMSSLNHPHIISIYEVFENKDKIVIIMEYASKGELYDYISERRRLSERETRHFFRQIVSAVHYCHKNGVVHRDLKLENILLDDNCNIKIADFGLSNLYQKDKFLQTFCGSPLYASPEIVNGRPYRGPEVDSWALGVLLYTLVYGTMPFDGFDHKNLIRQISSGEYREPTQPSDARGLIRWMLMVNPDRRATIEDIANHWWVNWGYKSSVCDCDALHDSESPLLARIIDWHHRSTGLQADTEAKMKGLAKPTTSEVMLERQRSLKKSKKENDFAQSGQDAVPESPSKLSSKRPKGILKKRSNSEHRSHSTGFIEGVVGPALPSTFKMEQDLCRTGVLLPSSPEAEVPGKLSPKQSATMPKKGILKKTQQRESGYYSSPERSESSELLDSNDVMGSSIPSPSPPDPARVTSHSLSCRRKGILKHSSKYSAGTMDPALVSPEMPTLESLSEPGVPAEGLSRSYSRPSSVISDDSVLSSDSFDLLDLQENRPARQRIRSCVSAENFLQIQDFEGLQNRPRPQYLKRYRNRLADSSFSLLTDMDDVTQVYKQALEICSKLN
Nature of the assay: Inhibition of NuaK1 Lys2 labeling site in human Huh-7 cell lysate at 1 uM by KiNativ Profiling analysis relative to control. The format is subcellular.

Chain of Fibroblast growth factor receptor 1 (Homo sapiens) (P11362 22-822 limits assumed): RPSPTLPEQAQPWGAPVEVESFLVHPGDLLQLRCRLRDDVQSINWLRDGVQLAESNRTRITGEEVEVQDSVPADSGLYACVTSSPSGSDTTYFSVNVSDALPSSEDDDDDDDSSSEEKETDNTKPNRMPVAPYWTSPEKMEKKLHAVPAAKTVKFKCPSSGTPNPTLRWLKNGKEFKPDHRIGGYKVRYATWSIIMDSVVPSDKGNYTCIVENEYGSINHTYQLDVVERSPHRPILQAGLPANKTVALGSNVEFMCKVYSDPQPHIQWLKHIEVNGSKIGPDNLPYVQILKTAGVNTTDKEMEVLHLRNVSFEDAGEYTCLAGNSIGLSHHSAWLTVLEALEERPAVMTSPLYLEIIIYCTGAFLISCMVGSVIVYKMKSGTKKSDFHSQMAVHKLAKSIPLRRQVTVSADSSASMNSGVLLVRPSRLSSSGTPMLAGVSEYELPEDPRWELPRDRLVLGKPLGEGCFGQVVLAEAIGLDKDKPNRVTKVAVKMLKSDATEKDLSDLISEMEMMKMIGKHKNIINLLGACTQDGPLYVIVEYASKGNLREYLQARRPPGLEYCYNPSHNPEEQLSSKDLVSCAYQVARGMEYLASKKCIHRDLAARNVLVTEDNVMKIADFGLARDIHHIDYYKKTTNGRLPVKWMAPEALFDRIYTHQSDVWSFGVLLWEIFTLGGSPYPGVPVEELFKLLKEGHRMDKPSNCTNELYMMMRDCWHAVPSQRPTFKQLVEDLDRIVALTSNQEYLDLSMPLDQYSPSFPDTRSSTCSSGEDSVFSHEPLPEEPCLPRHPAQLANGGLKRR
Chain of Serine/threonine-protein kinase ATR (Homo sapiens) (Q13535 whole entry, looked up): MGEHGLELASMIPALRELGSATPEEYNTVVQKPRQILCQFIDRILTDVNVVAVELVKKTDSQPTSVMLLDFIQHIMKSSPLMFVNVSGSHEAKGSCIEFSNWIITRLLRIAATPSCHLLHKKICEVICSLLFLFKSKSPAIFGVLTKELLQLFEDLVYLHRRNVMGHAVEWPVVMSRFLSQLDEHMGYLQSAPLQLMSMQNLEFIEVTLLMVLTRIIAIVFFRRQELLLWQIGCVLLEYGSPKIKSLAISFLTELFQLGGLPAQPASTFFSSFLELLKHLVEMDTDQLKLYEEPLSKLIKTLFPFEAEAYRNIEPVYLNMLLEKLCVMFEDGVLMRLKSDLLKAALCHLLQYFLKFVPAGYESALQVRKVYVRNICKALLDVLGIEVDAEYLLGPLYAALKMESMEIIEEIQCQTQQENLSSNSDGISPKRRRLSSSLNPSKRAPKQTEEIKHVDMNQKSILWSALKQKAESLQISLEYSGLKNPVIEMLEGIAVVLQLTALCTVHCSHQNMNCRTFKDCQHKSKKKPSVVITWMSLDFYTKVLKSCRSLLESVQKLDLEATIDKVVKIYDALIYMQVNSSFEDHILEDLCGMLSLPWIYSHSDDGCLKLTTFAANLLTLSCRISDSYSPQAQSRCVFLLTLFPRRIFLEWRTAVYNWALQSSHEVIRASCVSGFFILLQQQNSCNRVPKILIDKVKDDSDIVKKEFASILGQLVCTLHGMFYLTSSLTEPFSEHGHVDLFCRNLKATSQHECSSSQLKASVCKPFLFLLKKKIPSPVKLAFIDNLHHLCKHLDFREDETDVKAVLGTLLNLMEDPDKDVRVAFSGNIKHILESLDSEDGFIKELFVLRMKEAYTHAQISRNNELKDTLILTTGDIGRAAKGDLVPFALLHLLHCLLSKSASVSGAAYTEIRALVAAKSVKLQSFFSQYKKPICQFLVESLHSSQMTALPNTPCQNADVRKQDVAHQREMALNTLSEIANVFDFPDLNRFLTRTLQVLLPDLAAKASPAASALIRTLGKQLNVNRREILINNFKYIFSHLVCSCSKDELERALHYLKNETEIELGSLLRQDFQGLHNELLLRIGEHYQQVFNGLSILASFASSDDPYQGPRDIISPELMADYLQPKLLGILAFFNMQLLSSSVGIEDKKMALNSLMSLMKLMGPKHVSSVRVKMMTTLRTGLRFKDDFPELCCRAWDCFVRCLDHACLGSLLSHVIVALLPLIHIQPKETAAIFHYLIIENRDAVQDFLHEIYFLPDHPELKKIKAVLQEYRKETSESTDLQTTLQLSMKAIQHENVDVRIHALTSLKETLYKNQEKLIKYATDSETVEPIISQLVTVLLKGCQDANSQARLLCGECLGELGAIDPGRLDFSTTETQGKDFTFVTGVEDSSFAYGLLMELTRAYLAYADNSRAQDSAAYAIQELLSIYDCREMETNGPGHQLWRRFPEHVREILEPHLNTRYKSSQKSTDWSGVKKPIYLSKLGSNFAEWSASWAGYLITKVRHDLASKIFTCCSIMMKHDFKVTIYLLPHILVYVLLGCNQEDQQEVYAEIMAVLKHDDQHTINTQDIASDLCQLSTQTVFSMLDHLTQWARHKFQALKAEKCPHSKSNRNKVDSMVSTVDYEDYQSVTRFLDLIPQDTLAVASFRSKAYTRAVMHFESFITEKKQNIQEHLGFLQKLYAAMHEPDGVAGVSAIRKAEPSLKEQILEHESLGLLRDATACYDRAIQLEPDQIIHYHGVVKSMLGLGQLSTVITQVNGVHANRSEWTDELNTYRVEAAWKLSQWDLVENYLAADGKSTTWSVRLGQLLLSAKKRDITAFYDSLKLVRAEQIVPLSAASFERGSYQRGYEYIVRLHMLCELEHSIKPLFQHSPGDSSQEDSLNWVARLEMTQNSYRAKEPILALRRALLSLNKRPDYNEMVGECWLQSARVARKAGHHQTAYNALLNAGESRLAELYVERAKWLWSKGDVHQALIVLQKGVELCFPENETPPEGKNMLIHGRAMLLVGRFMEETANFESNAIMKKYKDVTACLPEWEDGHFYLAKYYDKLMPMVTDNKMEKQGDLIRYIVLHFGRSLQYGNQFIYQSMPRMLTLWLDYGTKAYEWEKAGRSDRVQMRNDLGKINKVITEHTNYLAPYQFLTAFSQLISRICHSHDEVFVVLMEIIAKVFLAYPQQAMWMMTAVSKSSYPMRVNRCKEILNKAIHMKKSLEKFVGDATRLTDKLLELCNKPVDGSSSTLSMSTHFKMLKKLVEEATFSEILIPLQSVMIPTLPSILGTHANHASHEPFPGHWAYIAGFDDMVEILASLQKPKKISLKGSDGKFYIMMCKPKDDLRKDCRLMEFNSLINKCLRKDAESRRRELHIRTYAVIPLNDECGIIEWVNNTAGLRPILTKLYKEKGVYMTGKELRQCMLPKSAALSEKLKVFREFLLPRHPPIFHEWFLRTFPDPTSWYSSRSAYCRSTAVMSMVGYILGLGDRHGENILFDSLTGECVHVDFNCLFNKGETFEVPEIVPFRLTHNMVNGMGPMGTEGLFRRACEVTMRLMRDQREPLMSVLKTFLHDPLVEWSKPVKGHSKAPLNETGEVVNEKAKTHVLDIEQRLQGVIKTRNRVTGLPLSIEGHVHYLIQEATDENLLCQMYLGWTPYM
Chain of Ephrin type-A receptor 7 (Homo sapiens) (Q15375 28-998 limits assumed): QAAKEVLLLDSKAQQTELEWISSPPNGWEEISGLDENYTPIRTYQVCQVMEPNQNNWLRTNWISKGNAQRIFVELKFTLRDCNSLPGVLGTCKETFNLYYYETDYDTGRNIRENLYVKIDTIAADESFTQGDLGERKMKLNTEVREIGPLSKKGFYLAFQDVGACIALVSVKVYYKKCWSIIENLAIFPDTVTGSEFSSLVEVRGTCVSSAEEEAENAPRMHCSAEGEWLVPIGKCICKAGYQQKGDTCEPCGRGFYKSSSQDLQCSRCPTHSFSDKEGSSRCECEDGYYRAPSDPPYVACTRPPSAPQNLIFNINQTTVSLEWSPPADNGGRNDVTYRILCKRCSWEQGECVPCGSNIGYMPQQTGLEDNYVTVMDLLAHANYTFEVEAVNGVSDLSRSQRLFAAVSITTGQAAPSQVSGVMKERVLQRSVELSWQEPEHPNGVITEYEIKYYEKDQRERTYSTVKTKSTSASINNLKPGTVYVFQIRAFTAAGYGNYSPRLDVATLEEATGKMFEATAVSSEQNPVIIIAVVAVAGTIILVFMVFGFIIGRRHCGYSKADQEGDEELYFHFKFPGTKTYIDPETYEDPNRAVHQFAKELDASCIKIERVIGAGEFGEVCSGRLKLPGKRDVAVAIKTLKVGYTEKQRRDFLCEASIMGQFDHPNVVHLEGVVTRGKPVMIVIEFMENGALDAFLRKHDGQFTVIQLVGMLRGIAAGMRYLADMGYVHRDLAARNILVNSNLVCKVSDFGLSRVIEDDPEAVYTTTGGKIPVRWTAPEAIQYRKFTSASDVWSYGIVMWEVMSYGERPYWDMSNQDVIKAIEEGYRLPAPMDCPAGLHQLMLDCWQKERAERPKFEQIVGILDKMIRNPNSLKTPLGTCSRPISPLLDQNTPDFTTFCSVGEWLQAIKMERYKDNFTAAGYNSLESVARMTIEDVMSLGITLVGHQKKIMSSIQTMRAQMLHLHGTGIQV
Chain of Calcium/calmodulin-dependent protein kinase type II subunit beta (Homo sapiens) (Q13554 whole entry): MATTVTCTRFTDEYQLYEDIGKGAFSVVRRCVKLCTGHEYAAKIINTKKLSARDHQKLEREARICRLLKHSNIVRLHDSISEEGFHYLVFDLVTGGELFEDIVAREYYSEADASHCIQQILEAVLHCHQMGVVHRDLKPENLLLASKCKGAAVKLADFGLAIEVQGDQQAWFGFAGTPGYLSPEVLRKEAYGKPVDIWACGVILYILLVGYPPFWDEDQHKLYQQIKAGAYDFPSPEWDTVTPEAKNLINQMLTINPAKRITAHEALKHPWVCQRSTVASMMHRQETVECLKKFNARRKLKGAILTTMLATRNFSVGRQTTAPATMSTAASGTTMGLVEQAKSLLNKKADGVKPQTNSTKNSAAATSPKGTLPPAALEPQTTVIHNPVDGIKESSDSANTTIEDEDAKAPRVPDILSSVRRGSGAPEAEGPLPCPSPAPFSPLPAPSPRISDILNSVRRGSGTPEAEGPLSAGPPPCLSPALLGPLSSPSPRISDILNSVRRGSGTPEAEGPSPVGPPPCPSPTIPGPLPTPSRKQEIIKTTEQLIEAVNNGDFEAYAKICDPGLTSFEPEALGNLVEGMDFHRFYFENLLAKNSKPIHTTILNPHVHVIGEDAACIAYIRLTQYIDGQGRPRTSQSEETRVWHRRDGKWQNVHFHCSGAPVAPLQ

For `CCN1CCN(Cc2ccc(NC(=O)c3ccc(C)c(/C=C/c4cnc5[nH]ccc5c4OC)c3)cc2C(F)(F)F)CC1`, in assay [1], the % of control was found to be 2.8%. Also, the inhibition in assay [2] came out at 78%.

`CCN1CCN(Cc2ccc(NC(=O)c3ccc(C)c(Oc4ccnc5[nH]ccc45)c3)cc2C(F)(F)F)CC1`: the values for the inhibition in [3], in assay [6] and in assay [9] were -7.1%, 35.6% and -2.8%, respectively. Besides, the inhibition entry in [4] and in assay [8] was “inactive” in each case. In addition, the residual activity in [5] was determined as 2.1%. The inhibition at 1 µM in assay [7] is -3.2%.

Consider `CNc1cc(Oc2cc(C(=O)Nc3cc(N4CCN(C)CC4)cc(C(F)(F)F)c3)ccc2C)ncn1`, for which the values for the inhibition in assay [10] and in assay [11] were 20.3% and -8.6%, respectively.

In general, inhibition refers to the drop in the measured response relative to a control, in per cent. As a reminder, the residual activity is what remains of the control signal, in per cent.

The values above are taken from ChEMBL document CHEMBL5696442, “Discovery of type II inhibitors of TGFβ-activated kinase 1 (TAK1) and mitogen-activated protein kinase kinase kinase kinase 2 (MAP4K2)” (J Med Chem, 2015).
